{
  "source": "patent US20170224679A1",
  "about": "“Use of CXCR2 Antagonists For The Prevention and/or Treatment of Chemotherapy Induced Peripheral Neuropathy (CIPN)” (GlaxoSmithKline Intellectual Property Development Limited, priority 2014, published 2017)",
  "key": {"CXCR2 receptor": {"molecular_target": "T1, CXCR2 receptor (Homo sapiens, UniProt P25025)", "T1 sequence (P25025 1-360)": "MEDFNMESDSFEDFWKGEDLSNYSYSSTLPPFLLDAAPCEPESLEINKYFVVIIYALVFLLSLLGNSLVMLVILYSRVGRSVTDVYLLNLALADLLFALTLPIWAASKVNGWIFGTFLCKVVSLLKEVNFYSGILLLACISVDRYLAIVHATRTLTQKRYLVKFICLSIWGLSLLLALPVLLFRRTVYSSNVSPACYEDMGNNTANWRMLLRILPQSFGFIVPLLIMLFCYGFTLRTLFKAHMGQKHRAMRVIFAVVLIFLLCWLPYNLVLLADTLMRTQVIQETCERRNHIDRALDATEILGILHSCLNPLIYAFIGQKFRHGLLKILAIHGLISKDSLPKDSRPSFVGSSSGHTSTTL", "assay": "CXCR2 Tango assay", "type": "cell-based", "parameters": "fused on or other part: TEV protease cleavage site and Gal4-VP16 transcription factor fused to the receptor (Invitrogen Tango construct); no part of the key", "details": "Tango reporter gene, 80 nM hCXCL1; read-out: pIC50 against the CXCR2 receptor (converted)", "source_text": "The assay measures ligand-induced activation of the receptor CXCR2 in a stable cell line containing the recombinant human CXCR2 linked to a TEV protease site and a Gal4-VP16 transcription factor (Invitrogen). Ligand binding to the receptor results in the recruitment of arrestin proteins (tagged with protease) to the receptor and triggers the release of a tethered transcription factor. The transcription factor enters the nucleus and activates the transcription of the reporter gene. The ability of a compound to inhibit CXCR2 activation is indirectly assessed by measuring the reporter gene activity.\nA vial of cryopreserved cells was removed from liquid nitrogen and rapidly thawed in a water bath at 37° C. with gentle agitation. The cell contents were collected and resuspended in Assay Medium at a density of ˜200,000 cells/ml. All test compounds were dissolved in DMSO at a concentration of 10 mM and then were serially diluted to generate a 10-point dose response curve into 384-well assay plate (Greiner 781090) using an Echo (Labcyte) concentration-response program (50 nl/well). The cell-free, un-stimulated and positive controls were loaded with 50 nl/well pure DMSO to ensure that the DMSO concentration was constant across the plate for all assays. Using Multi-drop Combi (Thermo) with standard cassette, 50 μl of Assay Medium was added to cell-free control wells in compound-containing assay plate; 50 μl of the cell suspension without hCXCL1 (a CXCR2 ligand) was added to un-stimulated control wells (10,000 cells per well); and 50 μl of the cell suspension with 80 nM hCXCL1 was added to the rest of wells of the assay plate (10,000 cells per well). The cells were incubated overnight at 37° C./5% CO2·10 μl of 6× substrate mixture (LiveBLAzer™-FRET B/G substrate (CCF4-AM) Cat #K1096 from Invitrogen, Inc.) was added to each well using Multi-drop Combi (Thermo) with small-tube cassette and the plate was incubated at room temperature for 2 h in the dark. The plate was then read on EnVision using one excitation channel (409 nm) and two emission channels (460 nm and 530 nm).\nThe blue/green emission ratio (460 nm/530 nm) was calculated for each well by dividing the background-subtracted Blue emission values by the background-subtracted Green emission values. The dose response curve was based on sigmoidal dose-response model. All ratio data was normalized based upon the maximum emission ratio of positive control (hCXCL1) and minimum emission ratio of negative control (DMSO) on each plate."}, "HCT116 cell line": {"tested_on": "HCT116 cell line", "assay": "Colorectal cancer cell line proliferation assay, HCT116", "type": "cell-based", "details": "HCT116, 72 hours", "experimental": "Cell proliferation assay: Cells were seeded in 96-well plates (Costar) at different cell densities: HCT116, 500 cells per well; Caco-2, 1000 cells per well. Total volume of the medium was 90 μl per well. Cells were incubated for 24 hours at 37° C. and 5% CO2 incubator. […] The final concentration of the Compound of Formula (A) was 8.5 μM. […] The cell proliferation rate was measured by adding 100 μl of CellTiter-Glo™ (Promega) according to the manufacturer's instructions. After 10 minutes of incubation, the cell lysates were transferred into OptiPlate-384 well, the luminescence was recorded by BioTek Synergy™ 4 Hybrid Microplate Reader with Gen5 software. All data points were generated in five replicates. Three independent experiments were performed. […] All data were presented as the mean±standard error of the mean determined from three independent experiments."}, "Sprague-Dawley rats": {"tested_on": "Sprague-Dawley rats", "assay": "CXCR2 antagonist effect on repeat dosing oxaliplatin induced sensory injury rat", "details": "Veh/Oxa rats, 4 mg/kg i.p. twice per week for 4 weeks, Day 29-31, mean±SEM", "description": "Male Sprague-Dawley rats (109-167 g, ˜5weeks old) were housed in cages in groups of three in a controlled environment of constant temperature and moisture (temperature: 25±3° C., light: dark cycle of 12:12 hours) with food (25 g/rat/day of LabDiet 5053) and water available ad libitum.\nMC (Sigma Cat #423238) was made up in water at 1% (w/v) (1 g per 100 mL water) and left on a stirrer until completely dissolved. The formulation was prepared every 6-8 days in 400-700 mL each time and stored at 4° C. protected from light. The dosing volume used was 10 mL/kg to give a 20 mg/kg p.o. dose. Vehicle treated animals were dosed b.i.d. with 1% MC w/v at 10 mL/kg p.o.\nA fresh solution was prepared before every injection. Control vehicle animals were treated with 5% w/v Gluclose at 5ml/kg. Glucose (Sigma Aldrich Cat #G7021) was made up in milli-Q water at 5% (w/v) (5 g per 100 mL water) and left on a stirrer until completely dissolved.\nBody weight tracking: The bodyweights of rats were measured twice a week for 4 weeks on Days 1, 3, 9, 11, 16, 18, 23, and 25. […]\nRats were anesthetized with chloral hydrate (350 mg/kg, 3.5 mL/kg, i.p.). […] The right sciatic nerve was carefully identified and conduction velocity was measured by recording action potentials from an electrode placed between the second and third digits as described by Jamieson et al., Br. J. Cancer, 88(12):1942-7 (2003), and electrically stimulating the nerve (5V, 0.5 s, single-wave pulses) via a platinum wire electrode at the sciatic notch and ankle. The length between the sciatic notch and ankle was measured.\nThe nerve conduction velocity was calculated as the length between sciatic notch and ankle divided by the difference between the time latencies at the stimulation sites [latency (sciatic notch)−latency (ankle)].\nA 1 cm segment of the left sciatic nerve (distal end) was located and carefully dissected out. […] The ratio of inner area over entire area of nerve fibers of sciatic nerves was then calculated as an indicator of thickness of myelin sheath of nerves."}, "CXCR1 receptor": {"molecular_target": "T2, CXCR1 receptor (Homo sapiens, UniProt P25024)", "T2 sequence (P25024 1-350)": "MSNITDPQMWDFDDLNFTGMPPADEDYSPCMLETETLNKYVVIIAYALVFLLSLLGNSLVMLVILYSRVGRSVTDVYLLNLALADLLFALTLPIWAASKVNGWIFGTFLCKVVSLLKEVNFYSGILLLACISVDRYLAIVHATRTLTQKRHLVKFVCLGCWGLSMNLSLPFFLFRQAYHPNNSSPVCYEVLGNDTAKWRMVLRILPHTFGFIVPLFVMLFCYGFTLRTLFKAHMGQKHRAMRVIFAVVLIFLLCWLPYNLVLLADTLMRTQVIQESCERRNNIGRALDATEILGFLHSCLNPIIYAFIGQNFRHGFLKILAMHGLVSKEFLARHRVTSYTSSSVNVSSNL", "assay": "Receptor binding assay ([125I] IL-8 SPA), CXCR1", "parameters": "expressed in transfected cells; host or cells: CHO cells (membranes)", "details": "[125I] IL-8 binding, CHO-CXCR1 membranes; read-out: pIC50 against the CXCR1 receptor (converted)", "experimental": "[^125I] IL-8 (human recombinant, IM249) was obtained from Amersham Corp., Arlington Heights, Ill., with specific activity 2000 Ci/mmol. All other chemicals were of analytical grade. High levels of recombinant human CXCR1 and CXCR2 receptors were individually expressed in Chinese hamster ovary (CHO) cells as described in Holmes, et al., Science, 1991, 253, 1278, incorporated herein to the extent required to perform the present assay. The Chinese hamster ovary membranes were prepared according to Haour, et al., J. Biol. Chem., 249 pp 2195-2205 (1974), incorporated herein to the extent required to perform the present assay, except that the homogenization buffer was changed to 40 mM Tris-HCL pH 7.5 containing 1 mM MgSO4, 0.5 mM EDTA (ethylene-diaminetetra-acetic acid), 1 mM PMSF (α-toluene-sulphonyl fluoride), 2.5 mg/L Leupeptin and 0.1 mg/ml Aprotinin. Membrane protein concentration was determined using Bio-Rad Reagent using bovine serum albumin as a standard. All binding assays were conducted using Scintillation Proximity Assay (SPA assay) using wheatgerm agglutinin beads in a 96-well micro plate (optiplate 96, Packard) format. […] The 96-well plates were incubated on a shaking platform for 1 hour. At the end of the incubation the plates were spun for 5 min at 2000 RPM, and counted in a Top Count counter."}},
  "data": [
    {"smiles": "CC1=CCC[C@H]1NC(=O)Nc1ccc(Cl)c(S(=O)(=O)C(C)(F)F)c1O", "note": "[Compound of Formula (I), (R)-1-(4-chloro-3-((1,1-difluoroethyl)sulfonyl)-2-hydroxyphenyl)-3-(2-methylcyclopent-2-en-1-yl)urea]", "values": [
      {"measurement": "IC50", "setting": "CXCR2 receptor", "value": 0.398, "unit": "nM"}
    ]},
    {"smiles": "O=C1[O][Pt]2([NH][C@@H]3CCCC[C@H]3[NH]2)[O]C1=O", "note": "[Oxaliplatin, oxaliplatin]", "values": [
      {"measurement": "pIC50 inhibition of cell proliferation", "setting": "HCT116 cell line; oxaliplatin with vehicle, mean±SEM", "value": "6.049±0.016"},
      {"measurement": "pIC50 inhibition of cell proliferation in the presence of Compound of Formula (A)", "setting": "HCT116 cell line; with Compound of Formula (A) 8.5 μM", "value": "6.05±0.02"},
      {"measurement": "sciatic nerve conduction velocity between sciatic notch and ankle", "setting": "Sprague-Dawley rats", "value": "35.99±0.59", "unit": "m/s"}
    ]},
    {"smiles": "CC1=CCC[C@H]1NC(=O)Nc1ccc(Cl)c(S(=O)(=O)[C@H]2C[C@H](N(C)C)C2)c1O", "note": "[Compound of Formula (H), 1-(4-chloro-3-((trans-3-(dimethylamino)cyclobutyl)sulfonyl)-2-hydroxyphenyl)-3-((R)-2-methylcyclopent-2-en-1-yl)urea]", "values": [
      {"measurement": "IC50", "setting": "CXCR2 receptor", "value": 1, "unit": "nM"}
    ]},
    {"smiles": "CC1(S(=O)(=O)c2c(Cl)ccc(NC(=O)N[C@@H]3CCC=C3Cl)c2O)CCOCC1", "note": "[Compound of Formula (E), (R)-1-(4-chloro-2-hydroxy-3-((4-methyltetrahydro-2H-pyran-4-yl)sulfonyl)phenyl)-3-(2-chlorocyclopent-2-en-1-yl)urea]", "values": [
      {"measurement": "IC50", "setting": "CXCR2 receptor", "value": 1.58, "unit": "nM"}
    ]},
    {"smiles": "CC1=CCC[C@H]1NC(=O)Nc1ccc(C#N)c(S(=O)(=O)C(C)(C)C)c1O", "note": "[Compound of Formula (F), (R)-1-(3-(tert-butylsulfonyl)-4-cyano-2-hydroxyphenyl)-3-(2-methylcyclopent-2-en-1-yl)urea]", "values": [
      {"measurement": "IC50", "setting": "CXCR2 receptor", "value": 0.2, "unit": "nM"}
    ]},
    {"smiles": "Cc1c(F)cccc1NC(=O)Nc1ccc(Cl)c(S(=O)(=O)C2CCCNC2)c1O", "note": "(stereo not shown) [Compound of Formula (B), 1-(4-chloro-2-hydroxy-3-(piperidin-3-ylsulfonyl)phenyl)-3-(3-fluoro-2-methylphenyl)urea]", "values": [
      {"measurement": "IC50", "setting": "CXCR1 receptor", "value": 1000, "unit": "nM"}
    ]},
    {"smiles": "CC1=CCC[C@H]1NC(=O)Nc1ccc(Cl)c(S(=O)(=O)[C@H]2C[C@H](N3CCCC3)C2)c1O", "note": "[Compound of Formula (G), 1-(4-chloro-2-hydroxy-3-((trans-3-(pyrrolidin-1-yl)cyclobutyl)sulfonyl)phenyl)-3-((R)-2-methylcyclopent-2-en-1-yl)urea]", "values": [
      {"measurement": "IC50", "setting": "CXCR2 receptor", "value": 1, "unit": "nM"}
    ]},
    {"smiles": "CC1=CCC[C@H]1NC(=O)Nc1ccc(Cl)c(S(=O)(=O)[C@]2(C)CCOC2)c1O", "note": "[Compound of Formula (C), 1-(4-chloro-2-hydroxy-3-(((R)-3-methyltetrahydrofuran-3-yl)sulfonyl)phenyl)-3-((R)-2-methylcyclopent-2-en-1-yl)urea]", "values": [
      {"measurement": "IC50", "setting": "CXCR2 receptor", "value": 1, "unit": "nM"}
    ]}
  ]
}
